Reference: US12674204B2, “Method for generating retinal pigment epithelium (RPE) cells from induced pluripotent stem cells (iPSCs)” (THE UNITED STATES OF AMERICA, as represented by the …, priority 2013, dated 2026)

Columns and labels:
Assay type in all cases: cell-based, human
iPSC-derived RPE = test: Intracellular calcium measurements and electrophysiology of iPSC-derived RPE monolayers
Protocol: Intracellular Calcium Measurements and Electrophysiology: To assess calcium signaling in the RPE cells: ATP (200 μM; Sigma) and Cyclopiazonic Acid (CPA; 10 μM; EMD Millipore); (see Maminishkis et al., Invest. Ophthal. Vis. Sci. 47(8):3612-3624, 2006); Quinn et al., Invest. Ophthal. Vis. Sci. 33(13):3513-3527, 1992).
(§1) Calomel electrodes in series with Ringer solutions and agar bridges were used to measure the transepithelial potential (TEP). The signals from intracellular microelectrodes were referenced to the basal bath to measure the apical and basal membrane potentials, VA and VB, where TEP=VB−VA. The total transepithelial resistance (Rt), and the ratio of the apical to basolateral membrane resistance (RA/RB) were obtained by passing 2-4 μA current pulses (peak to peak) across the tissue and measuring the resultant changes in TEP, VA and VB. See Maminishkis et al. supra and Quinn et al., supra for details.

iPSC-derived RPE cells = test: Sensitivity of iPSC-derived RPE cells to proteotoxic stressors in 384-well plates; conditions: conc. 10 μM, signals measured four days after the treatment, FIG. 29
Protocol: FIG. 29 is a bar graph showing the sensitivity of iPSC-derived RPE cells to various proteotoxic stressors. RPE cells differentiated from the reporter iPS cell line were grown in 384-well plates and treated with indicated stressors (conc. 10 μM). […] signals were measured four days after the treatment.

[1] = test system: iPSC derived retinal pigment epithelial cells; test: Aphidicolin treatment of iPSC-derived RPE: polarization, electrophysiology and phenotype
Text: as §1
Aphidicolin is a reversible inhibitor of eukaryotic nuclear DNA replication that blocks the cell cycle at early S phase. Its structure is that of a tetracyclic small molecule. […] It causes committed RPE cells to further mature and form fully-differentiated and highly polarized tissue monolayers (see FIGS. 30-31). Aphidicolin is dissolved in fourth medium and RPE cells are cultured in it for 6-8 weeks before analysis is done.

reporter iPSC line = test: GFP reporter signal / FACS analysis of RPE differentiation from reporter iPSC line; conditions: NAW versus NA, FIG. 17
Text: To optimize the protocol for iPSC to RPE differentiation, a reporter iPSC line was created. This reporter line constitutively expresses a red fluorescent protein, whose expression is controlled by ubiquitin gene promoter. The reporter iPSC line also expresses a green fluorescent protein (GFP), specifically when differentiated in to RPE lineage (FIG. 1-3). The RPE-specific enhancer of the gene Tyrosinase controls GFP expression in this iPSC line (FIG. 1). The first goal was to confirm that the GFP expression truly represents RPE lineage. To achieve this, iPSC line were differentiated using published differentiation protocols and characterized those differentiated cells using molecular and physiological assays. These assays are disclosed in FIGS. 22-24. FIG. 2 describes a simple schematic drawing of iPSC-RPE differentiation. When the reporter iPSC were differentiated into RPE, approximately 28 days into differentiation, GFP positive cells are present (FIG. 3A). […] GFP positive and negative cells were sorted by flow cytometry and the expression of several RPE-specific genes was analyzed, shown in FIG. 4.
Activin A induces RPE differentiation from ES cells. […] When quantified by FACS analysis, NA treatment produced only 22% GFP positive cells, whereas NAW treatment produced 52% GFP positive cells (FIG. 17, bottom panel).

iPSCs [2] = test: RPE differentiation from iPSCs scored by pigmented cells
Protocol: Transfer cells to Retinal Media (RM) plus Nicotinamide, Activin, and Wnt3a (NAW). Change media every other day (eg. Mon, Wed, and Fri) for 3 weeks.
Next, the effect of the concentration of knockout serum replacement (KSR) on RPE differentiation was tested.
Activin A induces RPE differentiation from ES cells. In animal models, canonical WNT (WNT3a) is important for RPE differentiation. It was hypothesized that a combination of activin A and WNT3a would be effective for the induction of RPE differentiation from iPSCs. A combination of these two factors was tested at the optic vesicle stage. Cells were moved from the RDM medium to medium containing either activin A (NA) only or activin A plus WNT3a (NAW). […] Because this differentiation process was started with the reporter iPSC lines, the increase in the number of RPE cell was confirmed by comparing the GFP signal between the two treatments. […] When quantified by FACS analysis, NA treatment produced only 22% GFP positive cells, whereas NAW treatment produced 52% GFP positive cells (FIG. 17, bottom panel).

iPSCs [3] = test: Quantitative gene expression of Pax6 and Mitf during eye-field/optic vesicle differentiation; conditions: 50 ng/ml Noggin with dual inhibition of WNT pathway and inhibition of FGF pathway
Protocol: After 48 hours of floating EB cultures they are plated onto MATRIGEL® coated plates in RDM medium. It was investigated whether the number of EBs plated/well affects differentiation of iPSCs into RPE. […] RDM medium was used for 3 weeks with change of medium on cells every Monday, Wednesday, and Friday Inhibition of Nodal, BMP, and WNT pathways can be important for differentiation of stem cells into eye-field cells. To inhibit the nodal pathway, the inhibitor SB431542 was used. To inhibit the activity of BMP pathway, various concentrations of Noggin, a BMP inhibitor, were tested. For WNT pathway inhibition, a combination of biological Wnt inhibitor DKK1 and a small molecule inhibitor of the WNT pathway CK1-7 were used.
Results have shown that inhibition of FGF signaling is important for RPE development. Therefore, the activity of FGF signaling pathway was modulated by either changing its concentration or/and by adding FGF inhibitor (PD 0325901) to the medium. The results were scored weekly by quantitative gene expression measurements of two transcription factors Pax6 and Mitf which are the master regulators of RPE differentiation (FIGS. 8-13). In addition, GFP expression was scored after six weeks as a direct measure of induction of RPE cells (FIG. 14).

[4] = aphidicolin treated RPE cells, FIG. 31

Question: With `Nc1ncnc2c1ncn2[C@@H]1O[C@H](COP(=O)(O)OP(=O)(O)OP(=O)(O)O)[C@@H](O)[C@H]1O` [ATP] as the molecule, how does the intracellular calcium response (iPSC-derived RPE; apical application, FIG. 26C) read?
Answer: typical bi-phasic response

Question: And the “basolateral membrane potential response” value (iPSC-derived RPE; applied to the apical membrane, FIG. 26D)?
Answer: significantly depolarizes the basolateral membrane

Question: With `O=CC[C@@H](O)[C@H](O)[C@H](O)CO` [2-Deoxy-D-Glucose] as the molecule, how does the “effect on RPE phenotype (GFP signal)” value (iPSC-derived RPE cells) read?
Answer: affected RPE phenotype

Question: How did the “effect on RPE phenotype (GFP signal)” value (iPSC-derived RPE cells) turn out when `CNc1ccc2oc(C[C@H]3O[C@@]4(CC[C@H]3C)O[C@H]([C@H](C)C(=O)c3ccc[nH]3)[C@H](C)C[C@H]4C)nc2c1C(=O)O` [A23187] was run?
Answer: affected RPE phenotype

Question: Which membrane potential [1, 4] does the source give for `C[C@@]1(CO)[C@H](O)CC[C@@]2(C)[C@H]1CC[C@H]1C[C@@H]3C[C@@]12CC[C@]3(O)CO` [Aphidicolin] here?
Answer: higher

Question: What about the “physiological responses (hyperpolarization to low potassium or ATP on the apical side)” value [1, 4] of the same molecule?
Answer: better physiological responses

Question: And the transepithelial resistance [1, 4]?
Answer: higher

Question: And the “apical process / polarization of RPE cells” value ([1]; compared to non-treated cells, FIG. 30)?
Answer: more extensive apical process

Question: What about the “RPE phenotype of iPS cell derived RPE on artificial membranes/scaffolds” value ([1]; cultured 6-8 weeks in fourth medium with aphidicolin) of the same molecule?
Answer: improves their RPE phenotype

Question: How did the “effect on RPE phenotype (GFP signal)” value (iPSC-derived RPE cells) turn out when `C/C=C(/C)C(=O)O[C@H]1C(C)=C2[C@H]([C@@H]1OC(=O)CCCCCCC)[C@@](C)(OC(C)=O)C[C@H](OC(=O)CCC)[C@@]1(O)[C@H]2OC(=O)[C@@]1(C)O` [Thapsigargin] was run?
Answer: affected RPE phenotype

B1: WNT3a: canonical WNT signaling regulator (protein, UniProt P56704 19-352, looked up)
Protein Wnt-3a: SYPIWWSLAVGPQYSSLGSQPILCASIPGLVPKQLRFCRNYVEIMPSVAEGIKIGIQECQHQFRGRRWNCTTVHDSLAIFGPVLDKATRESAFVHAIASAGVAFAVTRSCAEGTAAICGCSSRHQGSPGKGWKWGGCSEDIEFGGMVSREFADARENRPDARSAMNRHNNEAGRQAIASHMHLKCKCHGLSGSCEVKTCWWSQPDFRAIGDFLKDKYDSASEMVVEKHRESRGWVETLRPRYTYFKVPTERDLVYYEASPNFCEPNPETGSFGTRDRTCNVSSHGIDGCDLLCCGRGHNARAERRREKCRCVFHWCCYVSCQECTRVYDVHTCK
Question: With B1 as the molecule, how does the “number of GFP positive cells in differentiating iPSC cultures” value (reporter iPSC line) read?
Answer: significantly increases the number of GFP positive cells

Question: What about the “number of pigmented cells per dish” value (iPSCs [2]; activin A plus WNT3a (NAW) versus activin A only (NA), FIG. 16) of the same molecule?
Answer: significantly increased the number of pigmented cells per dish

Question: What about the RPE differentiation efficiency (iPSCs [2]; addition of WNT3a to Retinal Media with Nicotinamide and Activin) of the same molecule?
Answer: significantly increased the RPE differentiation efficiency

B2: Noggin: a BMP inhibitor, protein encoded by the NOG gene (protein, UniProt Q13253 28-232, looked up)
Noggin: QHYLHIRPAPSDNLPLVDLIEHPDPIFDPKEKDLNETLLRSLLGGHYDPGFMATSPPEDRPGGGGGAAGGAEDLAELDQLLRQRPSGAMPSEIKGLEFSEGLAQGKKQRLSKKLRRKLQMWLWSQTFCPVLYAWNDLGSRFWPRYVKVGSCFSKRSCSVPEGMVCKPSKSVHLTVLRWRCQRRGGQRCGWIPIQYPIISECKCSC
Question: For B2, which “expression of Pax6 and Mitf during the three weeks” value (iPSCs [3]) is on record?
Answer: significantly and progressively improve the expression of Pax6 and Mitf
